US20220031853A1, “HSP90-TARGETING CONJUGATES AND FORMULATIONS THEREOF” (TARVEDA THERAPEUTICS, INC., priority 2018, published 2022)

Columns and labels:
[1] = tested on: BT474 (breast) tumor cells; assay: Tumor cell cytotoxicity assay (CellTiter-Glo), BT474; format: cell-based; details: Homo sapiens, BT-474, 72 hrs, CellTiter-Glo ATP levels, read-out: in vitro cytotoxicity IC50
Protocol: (§1) Tumor cells were plated at 500-5,000 cells per well and incubated for 20-24 hrs at 37 °C at 5% CO2. Post cell incubation, compounds were reconstituted in DMSO to a stock concentration of 200 uM. A compound plate was then prepared containing a 10 point dilution in RPMI+10% FBS+0.25% DMSO. 5 uL of the dilution was then added for a final working concentration range of 10 uM to 0.0005 uM. Compounds and cells were then incubated for up to 72 hrs. Cells were then analyzed by CellTiter-Glo for ATP levels and percent inhibition calculated.
as §1, with “BT474 (breast), LS174T (colon), or HCT-116 (colon) tumor” for “Tumor”, “2500” for “500-5,000”, “for” for “for up to”

[2] = tested on: LS174T (colon) tumor cells; assay: Tumor cell cytotoxicity assay (CellTiter-Glo), LS174T; format: cell-based; details: Homo sapiens, 72 hrs, CellTiter-Glo ATP levels, read-out: in vitro cytotoxicity IC50
Protocol: as §1
as §1, with “BT474 (breast), LS174T (colon), or HCT-116 (colon) tumor” for “Tumor”, “2500” for “500-5,000”, “for” for “for up to”

[3] = tested on: HCT-116 (colon) tumor cells; assay: Tumor cell cytotoxicity assay (CellTiter-Glo), HCT-116; format: cell-based; details: Homo sapiens; HCT-116 cells, 72 hrs, CellTiter-Glo ATP levels; read-out: in vitro cytotoxicity IC50
Protocol: as §1
as §1, with “BT474 (breast), LS174T (colon), or HCT-116 (colon) tumor” for “Tumor”, “2500” for “500-5,000”, “for” for “for up to”

[4] = tested on: NCI-H460 cells (non-small cell lung cancer); assay: Tumor cell cytotoxicity assay (CellTiter-Glo), NCI-H460; format: cell-based; details: Homo sapiens, 48 hrs, CellTiter-Glo ATP levels, read-out: in vitro cytotoxicity IC50
Protocol: as §1
NCI-H460 cells (non-small cell lung cancer) were plated at 500 cells per well and incubated for 20-24 hrs at 37° C. at 5% CO2. Post cell incubation, compounds were reconstituted in DMSO to a stock concentration of 200 uM. A compound plate was then prepared containing a 10 point dilution in RPMI+10% FBS+0.25% DMSO. 5 uL of the dilution was then added for a final working concentration range of 10 uM to 0.0005 uM. Compounds and cells were then incubated for 48 hrs. Cells were then analyzed by CellTiter-Glo for ATP levels and percent inhibition calculated.

[5] = target: T1, purified recombinant HSP90a (Homo sapiens, UniProt P07900); assay: HSP90a Assay Kit, fluorescence polarization competition with fluorescently labeled geldanamycin; details: read-out: HSP90 Binding Kd
T1 construct: purchased
Protocol: The bindings of the conjugates to HSP90 were studied with the HSP90a Assay Kit. The HSP90a Assay Kit is designed for identification of HSP90a inhibitors using fluorescence polarization. The assay is based on the competition of fluorescently labeled geldanamycin for binding to purified recombinant HSP90a. The key to the HSP90a Assay Kit is the fluorescently labeled geldanamycin. The fluorescently labeled geldanamycin is incubated with a sample containing HSP90a enzyme to produce a change in fluorescent polarization that can then be measured using a fluorescence reader.

| Structure (SMILES) | IC50 [1] [nM] | IC50 [2] [nM] | IC50 [3] [nM] | IC50 [4] [nM] | Kd [5] [nM] |
| --- | --- | --- | --- | --- | --- |
| CCNC(=O)c1nnc(-c2cc(C(C)C)c(O)cc2O)n1-c1ccc(CN2CCN(C(=O)Cc3ccc(OC(=O)N(CC)C4CCN(C(=O)c5ccc(NC(=O)Nc6ccc(-c7nc(N8CCOCC8)nc(N8CCOCC8)n7)cc6)cc5)CC4)cc3)CC2)cc1 [Compound 18] | 1640 | 3370 | 246 | 389 |  |
| CCNC(=O)c1nnc(-c2cc(C(C)C)c(O)cc2O)n1-c1ccc(CN2CCN(C(=O)Cc3ccc(OC(=O)N4CCN(c5ccc(-n6c(=O)n(C)c7cnc8ccc(-c9ccc(OC)nc9)cc8c76)cc5C(F)(F)F)CC4)cc3)CC2)cc1 [Compound 22] |  |  |  |  | 0.79 |
| CCNC(=O)c1nnc(-c2cc(C(C)C)c(O)cc2O)n1-c1ccc(CN2CCN(C(=O)[C@H](N)Cc3ccc(OC(=O)N4CCN(c5ccc(-n6c(=O)n(C)c7cnc8ccc(-c9ccc(OC)nc9)cc8c76)cc5C(F)(F)F)CC4)cc3)CC2)cc1 [Compound 26] |  |  |  |  | 1.22 |
